{
  "source": "patent US8409618B2",
  "about": "“Odor-reducing quinone compounds” (Kimberly-Clark Worldwide, Inc., priority 2002, dated 2013)",
  "key": {"[1]": {"experiment": "Urine odor and secondary odor panel ranking, dye powders in urine, 8 millimolar (Example 7)", "design": "species or system human", "settings": "for Secondary Odor Ranking: scale 1 to 5, 5 extremely unpleasant, individual panelists' scores", "description": "(§1) Qualitative odor reduction was also assessed against common odors, such as garlic and urine. Specifically, panelists assessed odorant-containing jars by carefully unscrewing, and then raising the lid of each jar in a controlled manner, such that the odor was not diluted by the ambient air. The jars were wrapped and coded to ensure that the sample identity was unknown.\nThe effectiveness of various dyes in reducing urine odor was compared. […] Human female urine was initially collected and pooled by a nurse on staff at Kimberly-Clark Corporation. The pooled urine was added to mason jars in 50-milliliter aliquots using an automated pipette aid. Powders of the aforementioned dyes (commercially available from Sigma-Aldrich Chemical Co., Inc. of St. Louis, Mo. and Noveon Hilton Davis, Inc. of Cincinnati, Ohio) were weighed and placed into the mason jars containing 50 milliliters of urine so that the final concentration of the dye powder was 8 millimolar (equivalent to 0.5 wt. %). The mason jars were placed in an incubator overnight at 37° C.\nTo aid in the assessment of the dyes, the mason jars were divided into two groups for a morning assessment, and the best of both groups were compared in an afternoon assessment (after a total of 24 hours). In addition to ranking the jars from least to most malodorous (on a scale from 1 to 7, with 7 being the most malodors), panelists were also asked to judge whether there were secondary (non-urine) odors present and, if so, the extent that the secondary odors were unpleasant (on a scale from 1 to 5, with 5 being extremely unpleasant).\nIn this assessment, panelists were given instructions to rank the least malodorous jar as “1” and the most malodorous jar as “10,” remaining free to rank the other jars between 2-9."}, "[2]": {"experiment": "Urine odor panel ranking, dye powders in urine, 8 millimolar (Example 5)", "design": "species or system human", "settings": "8 millimolar dye in urine", "description": "as §1, with “unknown. The effectiveness of various quinone dyes in reducing urine odor was compared. Human female urine was initially collected and pooled by a nurse on staff at Kimberly-Clark Corporation.” for “unknown.”"}, "[3]": {"settings": "After 24 Hours, top performers of both groupings, 1 least, 10 most malodorous"}, "[4]": {"settings": "Second Grouping, morning assessment, 8 millimolar, higher = more malodorous"}, "[5]": {"settings": "After 6 Hours, 10 most, 1 least malodorous"}, "[6]": {"settings": "After 24 Hours, 10 most, 1 least malodorous"}},
  "data": [
    {"compound": "Cc1ccc(Nc2ccc(Nc3ccc(C)cc3S(=O)(=O)[O-])c3c2C(=O)c2ccccc2C3=O)c(S(=O)(=O)[O-])c1.[Na+].[Na+]", "note": "[D&C Green No. 5]", "values": [
      {"measurement": "Urine Odor Ranking (number of panelists): ranking 2", "setting": "[1]; [3]", "value": "1 number of panelists"},
      {"measurement": "Urine Odor Ranking (number of panelists): ranking 4", "setting": "[1]; [3]", "value": "1 number of panelists"},
      {"measurement": "Urine Odor Ranking (number of panelists): ranking 7", "setting": "[1]; [3]", "value": "2 number of panelists"},
      {"measurement": "Urine Odor Ranking (number of panelists): ranking 10", "setting": "[1]; [3]", "value": "1 number of panelists"},
      {"measurement": "Secondary Odor Ranking", "setting": "[1]; After 24 Hours", "value": 4},
      {"measurement": "urine odor reduction (panel)", "setting": "[1]; Second Grouping", "value": "did not perform as well compared to the other dyes"},
      {"measurement": "Urine Odor Ranking (number of panelists): ranking 4", "setting": "[1]; [4]", "value": "3 number of panelists"},
      {"measurement": "Urine Odor Ranking (number of panelists): ranking 5", "setting": "[1]; [4]", "value": "2 number of panelists"},
      {"measurement": "Secondary Odor Ranking", "setting": "[1]; Second Grouping", "value": 4},
      {"measurement": "Average Urine Odor Ranking, Avg. Score", "setting": "[1]; after 24 hours, top performers, 1 least, 10 most malodorous", "value": 6.0},
      {"measurement": "Average Urine Odor Ranking (with statistical corrections), Avg. Score", "setting": "[1]; after 24 hours, top performers, ignoring statistical anomalies", "value": 7.0},
      {"measurement": "urine malodor reduction (panel)", "setting": "[2]; 6 and 24 hours", "value": "functioned effectively in reducing urine malodor"},
      {"measurement": "Avg. Ranking (odor)", "setting": "[2]; [5]", "value": 3.0},
      {"measurement": "Ranking (number of panelists): ranking 1", "setting": "[2]; [5]", "value": "1 number of panelists"},
      {"measurement": "Ranking (number of panelists): ranking 3", "setting": "[2]; [5]", "value": "3 number of panelists"},
      {"measurement": "Ranking (number of panelists): ranking 5", "setting": "[2]; [5]", "value": "1 number of panelists"},
      {"measurement": "Avg. Ranking (odor)", "setting": "[2]; [6]", "value": 5.2},
      {"measurement": "Ranking (number of panelists): ranking 4", "setting": "[2]; [6]", "value": "3 number of panelists"},
      {"measurement": "Ranking (number of panelists): ranking 5", "setting": "[2]; [6]", "value": "1 number of panelists"},
      {"measurement": "Ranking (number of panelists): ranking 7", "setting": "[2]; [6]", "value": "2 number of panelists"}
    ]}
  ]
}
